Experimental data as given in patent US12351628B2, “Modified membrane spanning proteins and methods for the preparation and use thereof” (priority 2014, dated 2025).
Converted amounts (≈) assume the structure as drawn. Like-named read-outs stand apart in the source and are kept apart here.

System: E. coli strains (e.g. BL21 or DH10beta)
Experiment: Growth of E. coli on LB medium with varying antibiotic concentrations (MIC), liquid and agar plates
Type: cell-based
Settings: for Antibiotic concentration to which resistance is conferred: E. coli transformed with isolated mutated GPR55 clones; for MIC: Escherichia coli
Description: The construct library containing modified genes is then used to transform E. coli strains (e.g. BL21 or DH10beta). Growth is tested on LB medium with varying concentrations of kanamycin (MIC for untransformed cells is approximately 10 mg/L), both in liquid and agar plates.

[1] = E. coli containing a plasmid encoding wild type human GPR55
[2] = read-out: Apparent MIC, E. coli expressing certain constructs containing wild type rat NTSR1 (aa 43-424)

| SMILES | Antibiotic concentration to which resistance is conferred | MIC [1] | MIC [2] | MIC (untransformed E. coli cells, LB medium) |
| --- | --- | --- | --- | --- |
| CC1(C)S[C@@H]2[C@H](NC(=O)C(C(=O)O)c3ccccc3)C(=O)N2[C@H]1C(=O)O (stereo partly shown) [carbenicillin] | > 80 mg/L | ~40 µg/mL (≈ 106 µM) | > 75 µg/mL | – |
| NC[C@H]1O[C@H](O[C@H]2[C@H](O)[C@@H](O[C@H]3O[C@H](CO)[C@@H](O)[C@H](N)[C@H]3O)[C@H](N)C[C@@H]2N)[C@H](O)[C@@H](O)[C@@H]1O [kanamycin] | > 50 mg/L | ~25 µg/mL (≈ 51.6 µM) | > 50 µg/mL | ~10 µg/mL (≈ 20.6 µM) |
